In ChEMBL document CHEMBL4811278, “Discovery of novel modulators for the PPARα (peroxisome proliferator activated receptor α): Potential therapies for nonalcoholic fatty liver disease” (Bioorg Med Chem, 2021):
Active and inactive are the calls of the source. No cut-off for these calls is given here.

Experiments:
[1] = biological target: T1, Peroxisome proliferator-activated receptor alpha (Mus musculus) (UniProt P23204); assay: In vivo agonist activity at PPARalpha in high fat diet-induced nonalcoholic steatohepatitis C57BL/6J mouse model assessed as increase in LPL mRNA expression in liver administered at 3 mg/kg, po and measured after 24 hrs by quantitative real time PCR analysis; type: functional, organism-based
T1 sequence (whole entry): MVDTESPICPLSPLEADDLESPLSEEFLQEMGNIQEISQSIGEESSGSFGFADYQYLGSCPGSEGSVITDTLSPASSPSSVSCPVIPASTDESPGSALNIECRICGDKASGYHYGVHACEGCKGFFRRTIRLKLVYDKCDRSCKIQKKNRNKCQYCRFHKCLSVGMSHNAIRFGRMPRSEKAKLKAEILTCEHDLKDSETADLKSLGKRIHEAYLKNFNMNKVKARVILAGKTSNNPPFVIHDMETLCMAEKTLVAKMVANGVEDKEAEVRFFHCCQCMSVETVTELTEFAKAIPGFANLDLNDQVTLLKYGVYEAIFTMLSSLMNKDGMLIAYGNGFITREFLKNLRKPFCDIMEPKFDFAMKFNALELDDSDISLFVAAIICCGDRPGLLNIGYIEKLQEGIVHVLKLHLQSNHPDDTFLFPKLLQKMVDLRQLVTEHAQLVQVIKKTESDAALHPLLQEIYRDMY

[2] = biological target: T1, Peroxisome proliferator-activated receptor alpha (Mus musculus); assay: In vivo agonist activity at PPARalpha in high fat diet-induced nonalcoholic steatohepatitis C57BL/6J mouse model assessed as increase in Cyp4a3 mRNA expression in liver administered at 3 mg/kg, po and measured after 24 hrs by quantitative real time PCR analysis; type: functional, organism-based
[3] = biological target: T2, Peroxisome proliferator-activated receptor delta (Homo sapiens, UniProt Q03181); assay: Agonist activity at Gal4-fused human PPARdelta expressed in monkey CV1 cells assessed as receptor transactivation incubated for 45 hrs by luciferase reporter gene assay; type: cell-based, CV-1
T2 sequence (Q03181 whole entry): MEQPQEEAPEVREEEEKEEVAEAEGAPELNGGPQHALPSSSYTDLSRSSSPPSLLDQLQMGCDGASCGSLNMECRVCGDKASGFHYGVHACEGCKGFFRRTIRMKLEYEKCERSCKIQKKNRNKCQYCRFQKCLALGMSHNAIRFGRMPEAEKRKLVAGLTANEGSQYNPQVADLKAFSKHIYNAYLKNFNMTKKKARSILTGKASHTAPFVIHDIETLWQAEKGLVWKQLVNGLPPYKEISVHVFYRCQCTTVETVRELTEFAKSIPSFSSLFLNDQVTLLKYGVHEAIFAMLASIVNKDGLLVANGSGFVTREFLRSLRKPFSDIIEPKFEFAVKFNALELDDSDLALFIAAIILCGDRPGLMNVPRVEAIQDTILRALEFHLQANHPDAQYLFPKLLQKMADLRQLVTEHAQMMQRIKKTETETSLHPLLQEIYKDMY

[4] = biological target: T3, Peroxisome proliferator-activated receptor alpha (Homo sapiens, UniProt Q07869); assay: Agonist activity at Gal4-fused human PPARalpha co-expressed with RXRalpha in monkey CV1 cells assessed as PPRE transcriptional activation incubated for 45 hrs by luciferase reporter gene assay; type: cell-based, CV-1
T3 sequence (Q07869 whole entry): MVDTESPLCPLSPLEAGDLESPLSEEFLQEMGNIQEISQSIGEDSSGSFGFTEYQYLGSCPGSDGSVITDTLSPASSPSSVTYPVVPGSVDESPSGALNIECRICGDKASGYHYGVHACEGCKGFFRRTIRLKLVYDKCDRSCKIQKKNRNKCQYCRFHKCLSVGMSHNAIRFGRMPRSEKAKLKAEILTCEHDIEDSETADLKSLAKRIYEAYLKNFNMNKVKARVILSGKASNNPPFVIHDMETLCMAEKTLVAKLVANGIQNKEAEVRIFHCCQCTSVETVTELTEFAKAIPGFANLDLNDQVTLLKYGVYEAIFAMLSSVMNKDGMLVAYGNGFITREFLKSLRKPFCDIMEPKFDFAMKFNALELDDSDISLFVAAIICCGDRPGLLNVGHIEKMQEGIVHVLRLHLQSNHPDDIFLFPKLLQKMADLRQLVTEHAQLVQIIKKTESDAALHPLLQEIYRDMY

Mus musculus [5] = assay: Upregulation of PPARalpha expression in liver of high fat diet-induced nonalcoholic steatohepatitis C57BL/6J mouse model at 3 mg/kg, po and measured after 24 hrs by quantitative real time PCR analysis; type: functional, organism-based
[6] = biological target: T4, Peroxisome proliferator-activated receptor gamma (Homo sapiens, UniProt P37231); assay: Agonist activity at Gal4-fused human PPARgamma expressed in monkey CV1 cells assessed as receptor transactivation incubated for 45 hrs by luciferase reporter gene assay; type: cell-based, CV-1
T4 sequence (P37231 whole entry): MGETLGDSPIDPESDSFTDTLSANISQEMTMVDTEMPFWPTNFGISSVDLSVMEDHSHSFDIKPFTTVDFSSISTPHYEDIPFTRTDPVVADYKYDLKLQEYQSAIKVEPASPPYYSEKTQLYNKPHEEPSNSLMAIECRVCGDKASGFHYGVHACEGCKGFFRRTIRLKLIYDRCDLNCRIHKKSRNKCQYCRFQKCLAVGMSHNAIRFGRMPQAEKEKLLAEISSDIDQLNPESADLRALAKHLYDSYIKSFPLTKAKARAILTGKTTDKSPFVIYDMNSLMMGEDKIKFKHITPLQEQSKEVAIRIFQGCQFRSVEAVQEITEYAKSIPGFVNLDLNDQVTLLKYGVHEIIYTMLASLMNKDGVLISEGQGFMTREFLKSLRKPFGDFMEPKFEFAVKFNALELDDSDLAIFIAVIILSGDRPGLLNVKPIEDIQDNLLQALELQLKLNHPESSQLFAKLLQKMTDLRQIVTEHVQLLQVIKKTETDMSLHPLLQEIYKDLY

Mus musculus [7] = assay: Hypolipidemic activity in high fat diet-induced nonalcoholic steatohepatitis C57BL/6J mouse model assessed as reduction in plasma triglyceride level at 3 mg/kg, po administered via gavage and measured after 24 hrs; type: functional
[8] = biological target: T1, Peroxisome proliferator-activated receptor alpha (Mus musculus); assay: In vivo agonist activity at PPARalpha in high fat diet-induced nonalcoholic steatohepatitis C57BL/6J mouse model assessed as trans-repression of ApoC3 mRNA expression in liver administered at 3 mg/kg, po and measured after 24 hrs by quantitative real time PCR analysis; type: functional, organism-based
[9] = biological target: T1, Peroxisome proliferator-activated receptor alpha (Mus musculus); assay: In vivo agonist activity at PPARalpha in high fat diet-induced nonalcoholic steatohepatitis C57BL/6J mouse model assessed as increase in ACOX1 mRNA expression in liver administered at 3 mg/kg, po and measured after 24 hrs by quantitative real time PCR analysis; type: functional, organism-based
[10] = biological target: T1, Peroxisome proliferator-activated receptor alpha (Mus musculus); assay: In vivo agonist activity at PPARalpha in high fat diet-induced nonalcoholic steatohepatitis C57BL/6J mouse model assessed as increase in Cyp4a3 mRNA expression in liver administered at 3 mg/kg, po administered once daily for 7 days by quantitative real time PCR analysis; type: functional, organism-based; conditions: time 7.0 day
[11] = Toxicity in high fat diet-induced nonalcoholic steatohepatitis C57BL/6J mouse model assessed as increase in plasma glucose level at 3 mg/kg, po administered once daily for 7 days and measured after 4 days; type: organism-based; conditions: in vivo, 96 h, time 4 day
[12] = biological target: T1, Peroxisome proliferator-activated receptor alpha (Mus musculus); assay: In vivo agonist activity at PPARalpha in high fat diet-induced nonalcoholic steatohepatitis C57BL/6J mouse model assessed as increase in LPL mRNA expression in liver administered at 3 mg/kg, po administered once daily for 7 days by quantitative real time PCR analysis; type: functional, organism-based; conditions: time 7.0 day
[13] = biological target: T1, Peroxisome proliferator-activated receptor alpha (Mus musculus); assay: In vivo agonist activity at PPARalpha in high fat diet-induced nonalcoholic steatohepatitis C57BL/6J mouse model assessed as increase in mACADM gene expression in liver at 3 mg/kg, po administered once daily for 7 days by quantitative real time PCR analysis; type: functional, organism-based; conditions: time 7.0 day
[14] = biological target: T1, Peroxisome proliferator-activated receptor alpha (Mus musculus); assay: In vivo agonist activity at PPARalpha in high fat diet-induced nonalcoholic steatohepatitis C57BL/6J mouse model assessed as increase in mCPT1A gene expression in liver at 3 mg/kg, po administered once daily for 7 days and measured at >3 days by quantitative real time PCR analysis; type: functional, organism-based; conditions: time day >3
[15] = biological target: T5, Peroxisome proliferator-activated receptor alpha (Mus musculus, UniProt P23204); assay: Agonist activity at Gal4-fused mouse PPARalpha co-expressed with RXRalpha in monkey CV1 cells assessed as PPRE transcriptional activation incubated for 45 hrs by luciferase reporter gene assay; type: cell-based, CV-1
T5 sequence (P23204 whole entry): T1 sequence (whole entry)

| SMILES | Activity [1] | Activity [2] | EC50 [3] [µM] | EC50 [4] [µM] | Activity (Mus musculus [5]) | EC50 [6] [µM] | inhibition in vivo at 3 mg/kg (Mus musculus [7]) [%] | Activity [8] | Activity [9] | Activity [10] | Activity [11] | Activity [12] | Activity [13] | Activity [14] | EC50 [15] [µM] |
| --- | --- | --- | --- | --- | --- | --- | --- | --- | --- | --- | --- | --- | --- | --- | --- |
| Cc1ccc(Cn2nc(CCCc3ccc(OC(C)(C)C(=O)O)cc3)n(Cc3ccc(F)cc3)c2=O)cc1 | Active | Active | > 10 | 0.00095 | Active | > 10 | ≥ 50 | Active | Active |  |  |  |  |  |  |
| Cc1ccc(Cn2nc(CCCc3ccc(OC(C)(C)C(=O)O)cc3)n(Cc3ccc(C)cc3)c2=O)cc1 | Active | inactive | > 10 | 0.00085 | Active | > 10 | ≥ 50 | inactive | inactive |  |  |  |  |  |  |
| Cc1ccc(Cn2nc(CCCc3ccc(OC(C)(C)C(=O)O)cc3)n(Cc3ccccc3)c2=O)cc1 | Active | Active | > 10 |  | Active | > 10 | ≥ 50 | Active | Active |  |  |  |  |  |  |
| COc1ccc(Cn2c(CCCc3ccc(OC(C)(C)C(=O)O)cc3)nn(Cc3ccc(C(C)(C)C)cc3)c2=O)cc1 |  | Active |  |  | Active |  | ≥ 50 | Active | Active |  |  |  |  |  |  |
| COc1cc(Cn2c(CCCc3ccc(OC(C)(C)C(=O)O)cc3)nn(Cc3ccc(C)cc3)c2=O)cc(OC)c1OC | Active | Active | > 10 |  | Active | > 10 | ≥ 50 | Active | Active |  |  |  |  |  |  |
| CC(C)(Sc1ccc(CCN(CCCCC2CCCCC2)C(=O)NC2CCCCC2)cc1)C(=O)O [GW7647] |  | inactive |  |  |  |  | ≥ 50 |  | inactive | Active | Toxic | inactive | Active | Active |  |
| COc1cccc(Cn2c(CCCc3ccc(OC(C)(C)C(=O)O)cc3)nn(Cc3ccc(C)cc3)c2=O)c1 | Active | Active | > 10 | 0.001 | Active | > 10 | ≥ 50 | Active | Active |  |  |  |  |  |  |
| C=Cc1ccc(Cn2nc(CCCc3ccc(OC(C)(C)C(=O)O)cc3)n(Cc3ccc(C)cc3)c2=O)cc1 | Active | Active | > 10 | 0.012 | Active | > 10 | ≥ 50 | Active | Active |  |  |  |  |  | 0.02 |
| Cc1ccc(Cn2nc(CCCc3ccc(OC(C)(C)C(=O)O)cc3)n(Cc3ccc(Cl)cc3)c2=O)cc1 | Active | Active | > 10 | 0.001 | Active | > 10 | ≥ 50 | Active | Active |  |  |  |  |  | 0.01 |
